Reference: PubChem BioAssay (NCI)
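Grown in 96-well plates, cells were treated for 48 hours with each compound at five concentrations. Insufficient inhibition: endpoint recorded as highest concentration tested. At the GI50, growth is halved. TGI marks complete inhibition of growth.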

Tests used:
Assay in all cases: growth of human tumour cells (NCI), 48 h
CAKI-1 renal = test system: CAKI-1 renal
SK-MEL-2 melanoma = test system: SK-MEL-2 melanoma
MCF7 breast = test system: MCF7 breast
SR leukemia = test system: SR leukemia
K-562 leukemia = test system: K-562 leukemia
LOX IMVI melanoma = test system: LOX IMVI melanoma
HL-60(TB) leukemia = test system: HL-60(TB) leukemia
U251 CNS = test system: U251 CNS
NCI-H23 lung = test system: NCI-H23 lung
MDA-MB-231 breast = test system: MDA-MB-231 breast

SMILES | GI50 (CAKI-1 renal) [µM] | TGI (CAKI-1 renal) [µM] | GI50 (SK-MEL-2 melanoma) [µM] | TGI (SK-MEL-2 melanoma) [µM] | GI50 (MCF7 breast) [µM] | TGI (MCF7 breast) [µM] | GI50 (SR leukemia) [µM] | TGI (SR leukemia) [µM] | GI50 (K-562 leukemia) [µM] | TGI (K-562 leukemia) [µM] | GI50 (LOX IMVI melanoma) [µM] | TGI (LOX IMVI melanoma) [µM] | GI50 (HL-60(TB) leukemia) [µM] | TGI (HL-60(TB) leukemia) [µM] | GI50 (U251 CNS) [µM] | TGI (U251 CNS) [µM] | GI50 (NCI-H23 lung) [µM] | TGI (NCI-H23 lung) [µM] | GI50 (MDA-MB-231 breast) [µM] | TGI (MDA-MB-231 breast) [µM]
O=C(N/N=C\c1ccc(N(CCCl)CCCl)cc1)c1cccnc1 | 8.53 | > 100 | > 100 | > 100 | 20.9 | > 100 | 3.1 | > 100 | 32.2 | > 100 | 21.3 | > 100 | 3.39 | 46.9 | > 100 | > 100 | 15.8 | > 100 | 24.8 | > 100
CC12CP(=O)(O)CC1C2(Cl)Cl (stereo not given) | – | > 100 | – | > 100 | – | > 100 | – | > 100 | – | > 100 | – | > 100 | – | > 100 | – | > 100 | – | > 100 | – | > 100
C=C(C)[C@@]12C[C@H](OC(=O)[C@H](O)[C@@H](NC(=O)c3ccccc3)c3ccccc3)C(C)=C1[C@@H](OC(C)=O)C(=O)[C@@]1(C)C([C@@H]2OC(=O)c2cc(F)cc(F)c2)C2(OC(C)=O)CO[C@@H]2C[C@@H]1O (stereo not given in full) | – | > 10 | – | 2.28 | – | > 10 | – | > 3.64 | – | > 6.66 | – | 2.21 | – | 0.224 | – | > 5.16 | – | 3.14 | – | 2.22
